# Test system: 521955-158-R2-J5-PDC complex spheroid growth
# Assay: Anticancer human tumor 521955-158-R2-J5-PDC patient-derived pancreatic carcinoma cell line growth inhibition [AhR]
# Conditions: for IC50: curve of first compound; for viability, T/C: stronger effect = lower value
# In short: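 Spheroids combined tumor cells with HUVEC endothelial cells and human MSCs as stroma. AhR antagonists were paired with standard or investigational drugs, each dosed in half-log steps down from near clinical Cmax, or from 10 microM where Cmax was unknown.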
# [1] = second compound 0.1 µM, first compound 0.00949 µM
# [2] = second compound 0.1 µM, first compound 0.03 µM
# [3] = second compound 0.1 µM, first compound 0.0949 µM
# [4] = second compound 0.1 µM, first compound 0.3 µM
# [5] = second compound 0.316 µM, first compound 0.00949 µM
# [6] = second compound 0.316 µM, first compound 0.03 µM
# [7] = second compound 0.316 µM, first compound 0.0949 µM
# [8] = second compound 0.316 µM, first compound 0.3 µM
# [9] = second compound 1 µM, first compound 0.00949 µM
# [10] = second compound 1 µM, first compound 0.03 µM
# [11] = second compound 1 µM, first compound 0.0949 µM
# [12] = second compound 1 µM, first compound 0.3 µM
# [13] = second compound 3.16 µM, first compound 0.00949 µM
# [14] = second compound 3.16 µM, first compound 0.03 µM
# [15] = second compound 3.16 µM, first compound 0.0949 µM
# [16] = second compound 3.16 µM, first compound 0.3 µM
# [17] = second compound 10 µM, first compound 0.00949 µM
# [18] = second compound 10 µM, first compound 0.03 µM
# [19] = second compound 10 µM, first compound 0.0949 µM
# [20] = second compound 10 µM, first compound 0.3 µM
# 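For viability, T/C in this document: spheroids mix tumor cells with HUVEC endothelium and human MSC stroma; luminescence taken as viability surrogate after a week of drug exposure.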
compound,measurement,setting,value
Cn1ncnc1C1c2n[nH]c(=O)c3cc(F)cc(c23)NC1c1ccc(F)cc1 (stereo not given) + Cc1ccccc1N=Nc1ccc(NC(=O)c2ccnn2C)c(C)c1,IC50,second compound 0.1 µM,> 0.1 µM
same,IC50,second compound 0.316 µM,> 0.1 µM
same,IC50,second compound 1 µM,> 0.1 µM
same,IC50,second compound 3.16 µM,> 0.1 µM
same,IC50,second compound 10 µM,> 0.1 µM
same,"viability, T/C","second compound 0.1 µM, first compound 0.000316 µM",110%
same,"viability, T/C","second compound 0.1 µM, first compound 0.001 µM",115%
same,"viability, T/C","second compound 0.1 µM, first compound 0.00316 µM",108%
same,"viability, T/C","second compound 0.1 µM, first compound 0.01 µM",103%
same,"viability, T/C","second compound 0.1 µM, first compound 0.0316 µM",105%
same,"viability, T/C","second compound 0.1 µM, first compound 0.1 µM",75.4%
same,"viability, T/C","second compound 0.316 µM, first compound 0.000316 µM",111%
same,"viability, T/C","second compound 0.316 µM, first compound 0.001 µM",119%
same,"viability, T/C","second compound 0.316 µM, first compound 0.00316 µM",108%
same,"viability, T/C","second compound 0.316 µM, first compound 0.01 µM",98.5%
same,"viability, T/C","second compound 0.316 µM, first compound 0.0316 µM",97.8%
same,"viability, T/C","second compound 0.316 µM, first compound 0.1 µM",89.1%
same,"viability, T/C","second compound 1 µM, first compound 0.000316 µM",111%
same,"viability, T/C","second compound 1 µM, first compound 0.001 µM",107%
same,"viability, T/C","second compound 1 µM, first compound 0.00316 µM",138%
same,"viability, T/C","second compound 1 µM, first compound 0.01 µM",118%
same,"viability, T/C","second compound 1 µM, first compound 0.0316 µM",118%
same,"viability, T/C","second compound 1 µM, first compound 0.1 µM",115%
same,"viability, T/C","second compound 3.16 µM, first compound 0.000316 µM",140%
same,"viability, T/C","second compound 3.16 µM, first compound 0.001 µM",150%
same,"viability, T/C","second compound 3.16 µM, first compound 0.00316 µM",142%
same,"viability, T/C","second compound 3.16 µM, first compound 0.01 µM",154%
same,"viability, T/C","second compound 3.16 µM, first compound 0.0316 µM",128%
same,"viability, T/C","second compound 3.16 µM, first compound 0.1 µM",128%
same,"viability, T/C","second compound 10 µM, first compound 0.000316 µM",158%
same,"viability, T/C","second compound 10 µM, first compound 0.001 µM",148%
same,"viability, T/C","second compound 10 µM, first compound 0.00316 µM",158%
same,"viability, T/C","second compound 10 µM, first compound 0.01 µM",146%
same,"viability, T/C","second compound 10 µM, first compound 0.0316 µM",143%
same,"viability, T/C","second compound 10 µM, first compound 0.1 µM",141%
CCN(c1cc(-c2ccc(CN3CCOCC3)cc2)cc(C(=O)NCc2c(C)cc(C)[nH]c2=O)c1C)C1CCOCC1 + CC(CO)NC(=O)c1cc(-c2ccc(Cl)cc2)nn(-c2cnn(C)c2)c1=O,IC50,second compound 0.1 µM,> 3 µM
same,IC50,second compound 0.316 µM,> 3 µM
same,IC50,second compound 1 µM,> 3 µM
same,IC50,second compound 3.16 µM,> 3 µM
same,IC50,second compound 10 µM,> 3 µM
same,"viability, T/C",[1],121%
same,"viability, T/C",[2],110%
same,"viability, T/C",[3],102%
same,"viability, T/C",[4],80.8%
same,"viability, T/C","second compound 0.1 µM, first compound 0.949 µM",81.1%
same,"viability, T/C","second compound 0.1 µM, first compound 3 µM",102%
same,"viability, T/C",[5],103%
same,"viability, T/C",[6],103%
same,"viability, T/C",[7],97.4%
same,"viability, T/C",[8],101%
same,"viability, T/C","second compound 0.316 µM, first compound 0.949 µM",87.6%
same,"viability, T/C","second compound 0.316 µM, first compound 3 µM",86.5%
same,"viability, T/C",[9],105%
same,"viability, T/C",[10],93.7%
same,"viability, T/C",[11],129%
same,"viability, T/C",[12],94.5%
same,"viability, T/C","second compound 1 µM, first compound 0.949 µM",72.5%
same,"viability, T/C","second compound 1 µM, first compound 3 µM",82.6%
same,"viability, T/C",[13],90.6%
same,"viability, T/C",[14],79.3%
same,"viability, T/C",[15],99.1%
same,"viability, T/C",[16],86.7%
same,"viability, T/C","second compound 3.16 µM, first compound 0.949 µM",74%
same,"viability, T/C","second compound 3.16 µM, first compound 3 µM",91%
same,"viability, T/C",[17],91%
same,"viability, T/C",[18],96.8%
same,"viability, T/C",[19],84.9%
same,"viability, T/C",[20],77.4%
same,"viability, T/C","second compound 10 µM, first compound 0.949 µM",74.4%
same,"viability, T/C","second compound 10 µM, first compound 3 µM",60.7%
CC(C)CC(NC(=O)C(Cc1ccccc1)NC(=O)c1cnccn1)B(O)O (stereo not given) + CC(CO)NC(=O)c1cc(-c2ccc(Cl)cc2)nn(-c2cnn(C)c2)c1=O,IC50,second compound 0.1 µM,0.00438 µM
same,IC50,second compound 0.316 µM,0.00536 µM
same,IC50,second compound 1 µM,0.00434 µM
same,IC50,second compound 3.16 µM,0.00486 µM
same,IC50,second compound 10 µM,0.00416 µM
same,"viability, T/C","second compound 0.1 µM, first compound 0.000949 µM",78.8%
same,"viability, T/C","second compound 0.1 µM, first compound 0.003 µM",71.6%
same,"viability, T/C",[1],5.92%
same,"viability, T/C",[2],2.45%
same,"viability, T/C",[3],2%
same,"viability, T/C",[4],0.19%
same,"viability, T/C","second compound 0.316 µM, first compound 0.000949 µM",103%
same,"viability, T/C","second compound 0.316 µM, first compound 0.003 µM",94.7%
same,"viability, T/C",[5],6.1%
same,"viability, T/C",[6],1.23%
same,"viability, T/C",[7],0.12%
same,"viability, T/C",[8],1.89%
same,"viability, T/C","second compound 1 µM, first compound 0.000949 µM",113%
same,"viability, T/C","second compound 1 µM, first compound 0.003 µM",70.6%
same,"viability, T/C",[9],6.39%
same,"viability, T/C",[10],2.84%
same,"viability, T/C",[11],0.51%
same,"viability, T/C",[12],0.29%
same,"viability, T/C","second compound 3.16 µM, first compound 0.000949 µM",83.5%
same,"viability, T/C","second compound 3.16 µM, first compound 0.003 µM",81.6%
same,"viability, T/C",[13],6.11%
same,"viability, T/C",[14],0.25%
same,"viability, T/C",[15],1.98%
same,"viability, T/C",[16],1.99%
same,"viability, T/C","second compound 10 µM, first compound 0.000949 µM",68.2%
same,"viability, T/C","second compound 10 µM, first compound 0.003 µM",68.3%
same,"viability, T/C",[17],3.86%
same,"viability, T/C",[18],0.37%
same,"viability, T/C",[19],0.52%
same,"viability, T/C",[20],1.58%

# Reference: PubChem BioAssay AID1918998 (Molecular Pharmacology Branch, DTP, NCI, 2023)
